What was measured:
Test in all cases: Bliss excess, mean over the matrix (fraction); higher = more synergy
GAMG (Glioblastoma) = system: GAMG (Glioblastoma)
How it was run: (§1)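 Cell lines grown in DMEM/F12 or RPMI with 10% FBS were plated in 1536-well plates and held 24 hours at 37°C, 5% CO2 before 72 hours of exposure to two-drug dose matrices, with DMSO typically at 0.2%. CellTiter-Glo 2.0 luminescence gave viability, which was converted to inhibition. Vehicle wells were set to 0 and blank wells to 1. Combination Emax is the second-highest inhibition in the matrix, and Bliss excess is the observed combination effect minus the expected EA + EB − EA·EB, where EA and EB are the single-agent effects.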

[1] = system: NCI-H209 (Small Cell Lung Carcinoma)
How it was run: as §1

[2] = system: FTC-133 (Thyroid Gland Carcinoma)
How it was run: as §1

[3] = system: SNU-449 (Hepatocellular Carcinoma)
How it was run: as §1

A673 (Ewing's Sarcoma) = system: A673 (Ewing's Sarcoma)
How it was run: as §1

[4] = system: BE-13 (T-Lymphoblastic Leukemia)
How it was run: as §1

[5] = system: KYAE-1 (Esophageal Adenocarcinoma)
How it was run: as §1

NCI-H2052 (Mesothelioma) = system: NCI-H2052 (Mesothelioma)
How it was run: as §1

[6] = system: SNU-16 (Gastric Carcinoma)
How it was run: as §1

[7] = system: LS-123 (Colorectal Carcinoma)
How it was run: as §1

[8] = system: HH (T-Cell Non-Hodgkin's Lymphoma)
How it was run: as §1

[9] = system: OE21 (Esophageal Squamous Cell Carcinoma)
How it was run: as §1

[10] = system: YAPC (Pancreatic Carcinoma)
How it was run: as §1

[11] = system: LNZTA3WT4 (Low Grade Glioma)
How it was run: as §1

[12] = system: ALL-PO (B-Lymphoblastic Leukemia)
How it was run: as §1

[13] = system: SW1573 (Lung Adenocarcinoma)
How it was run: as §1

[14] = system: NCI-H1568 (Lung Adenocarcinoma)
How it was run: as §1

[15] = system: L-428 (Hodgkin's Lymphoma)
How it was run: as §1

[16] = system: KMRC-20 (Kidney Carcinoma)
How it was run: as §1

[17] = system: OVCAR-5 (Ovarian Carcinoma)
How it was run: as §1

Compound: Cc1cc2ncnn2cc1Nc1ncc2c(n1)n(C1CCOCC1)c(=O)n2C [AZD7648] + CN(C)CCCOc1ccc(-c2ccc3ncc4c(c3c2)n(C2CCOCC2)c(=O)n4C)cn1 [AZD0156] (first compound max 10 µM, 7x7, partner max 1 µM)
- Bliss excess (GAMG (Glioblastoma)): -0.058
- Bliss excess [1]: 0.048
- Bliss excess [2]: 0.0239
- Bliss excess [3]: -0.0457
- Bliss excess (A673 (Ewing's Sarcoma)): -0.0142
- Bliss excess [4]: -0.0188
- Bliss excess [5]: 0.0007
- Bliss excess (NCI-H2052 (Mesothelioma)): 0.0038
- Bliss excess [6]: 0.0214
- Bliss excess [7]: 0.0338
- Bliss excess [8]: -0.0338
- Bliss excess [9]: -0.0629
- Bliss excess [10]: -0.0126
- Bliss excess [11]: 0.0113
- Bliss excess [12]: 0.0524
- Bliss excess [13]: -0.0114
- Bliss excess [14]: -0.0213
- Bliss excess [15]: 0.069
- Bliss excess [16]: -0.0232
- Bliss excess [17]: -0.0244

Compound: Cc1cc2ncnn2cc1Nc1ncc2c(n1)n(C1CCOCC1)c(=O)n2C [AZD7648] + C[C@@H]1COCCN1C2=NC(=NC(=C2)C3(CC3)[S@](=N)(=O)C)C4=C5C=CNC5=NC=C4 [AZD6738] (first compound max 10 µM, 7x7, partner max 10 µM)
- Bliss excess (GAMG (Glioblastoma)): 0.0064
- Bliss excess [1]: -0.0155
- Bliss excess [2]: -0.0369
- Bliss excess [3]: 0.0318
- Bliss excess (A673 (Ewing's Sarcoma)): -0.0295
- Bliss excess [4]: -0.0121
- Bliss excess [5]: 0.0399
- Bliss excess (NCI-H2052 (Mesothelioma)): 0.0186
- Bliss excess [6]: -0.009
- Bliss excess [7]: -0.0021
- Bliss excess [8]: 0.0284
- Bliss excess [9]: -0.0793
- Bliss excess [10]: 0.0058
- Bliss excess [11]: -0.0165
- Bliss excess [12]: 0.0381
- Bliss excess [13]: 0.0293
- Bliss excess [14]: 0.0383
- Bliss excess [15]: -0.0223
- Bliss excess [16]: -0.0207
- Bliss excess [17]: 0.0263

Compound: Cc1cc2ncnn2cc1Nc1ncc2c(n1)n(C1CCOCC1)c(=O)n2C [AZD7648] + O=C(c1cc(Cc2n[nH]c(=O)c3ccccc23)ccc1F)N1CCN(C(=O)C2CC2)CC1 [Olaparib] (first compound max 10 µM, 7x7, partner max 10 µM)
- Bliss excess (GAMG (Glioblastoma)): -0.0608
- Bliss excess [1]: 0.0055
- Bliss excess [2]: -0.0306
- Bliss excess [3]: -0.0525
- Bliss excess (A673 (Ewing's Sarcoma)): -0.015
- Bliss excess [4]: -0.0079
- Bliss excess [5]: -0.0362
- Bliss excess (NCI-H2052 (Mesothelioma)): -0.0521
- Bliss excess [6]: -0.0301
- Bliss excess [7]: -0.0221
- Bliss excess [8]: -0.0269
- Bliss excess [9]: -0.088
- Bliss excess [10]: -0.0521
- Bliss excess [11]: -0.0341
- Bliss excess [12]: -0.0202
- Bliss excess [13]: -0.0158
- Bliss excess [14]: -0.0307
- Bliss excess [15]: -0.019
- Bliss excess [16]: -0.0594
- Bliss excess [17]: -0.0349

Compound: Cc1nc(Nc2ncc(C(=O)Nc3c(C)cccc3Cl)s2)cc(N2CCN(CCO)CC2)n1 [Dasatinib] + CC(=O)Nc1cccc(-n2c(=O)n(C3CC3)c(=O)c3c(Nc4ccc(I)cc4F)n(C)c(=O)c(C)c32)c1 [Trametinib] (first compound max 2 µM, 7x7, partner max 1 µM)
- Bliss excess (GAMG (Glioblastoma)): -0.018
- Bliss excess [1]: -0.039
- Bliss excess [2]: -0.0878
- Bliss excess [3]: -0.0631
- Bliss excess (A673 (Ewing's Sarcoma)): -0.075
- Bliss excess [4]: 0.123
- Bliss excess [5]: -0.0114
- Bliss excess (NCI-H2052 (Mesothelioma)): -0.0528
- Bliss excess [6]: -0.0261
- Bliss excess [7]: 0.0891
- Bliss excess [8]: -0.0188
- Bliss excess [9]: -0.0561
- Bliss excess [10]: 0.0605
- Bliss excess [11]: -0.0794
- Bliss excess [12]: 0.0238
- Bliss excess [13]: -0.0715
- Bliss excess [14]: 0.118
- Bliss excess [15]: -0.0494
- Bliss excess [16]: -0.0518
- Bliss excess [17]: 0.0217

Compound: COc1cc2ncnc(Nc3ccc(F)c(Cl)c3)c2cc1OCCCN1CCOCC1 [Gefitinib] + CC(C)n1c(=O)n(C)c2cnc3cc(F)c(-c4ccc(OCCCN5CCCCC5)nc4)cc3c21 [AZD1390] (first compound max 10 µM, 7x7, partner max 0.3 µM)
- Bliss excess (GAMG (Glioblastoma)): -0.0443
- Bliss excess [1]: -0.0831
- Bliss excess [2]: -0.0752
- Bliss excess [3]: -0.0529
- Bliss excess (A673 (Ewing's Sarcoma)): -0.047
- Bliss excess [4]: -0.0956
- Bliss excess [5]: -0.0421
- Bliss excess (NCI-H2052 (Mesothelioma)): -0.0544
- Bliss excess [6]: -0.0183
- Bliss excess [7]: -0.0622
- Bliss excess [8]: -0.0263
- Bliss excess [9]: -0.0696
- Bliss excess [10]: -0.0233
- Bliss excess [11]: -0.0393
- Bliss excess [12]: -0.0558
- Bliss excess [13]: -0.0726
- Bliss excess [14]: -0.0412
- Bliss excess [15]: -0.0645
- Bliss excess [16]: -0.056
- Bliss excess [17]: -0.0846

Compound: COc1cc2c(cc1OCCCCCOc1cc3c(cc1OC)C(=O)N1C=C(C)C[C@H]1C=N3)N=C[C@@H]1CC(C)=CN1C2=O [SG3199] + O=C(c1cc(Cc2n[nH]c(=O)c3ccccc23)ccc1F)N1CCN(C(=O)C2CC2)CC1 [Olaparib] (first compound max 0.001 µM, 7x7, partner max 10 µM)
- Bliss excess (GAMG (Glioblastoma)): -0.0494
- Bliss excess [1]: 0.0051
- Bliss excess [2]: -0.013
- Bliss excess [3]: -0.0647
- Bliss excess (A673 (Ewing's Sarcoma)): -0.0556
- Bliss excess [4]: -0.0469
- Bliss excess [5]: -0.0195
- Bliss excess (NCI-H2052 (Mesothelioma)): -0.0319
- Bliss excess [6]: -0.0598
- Bliss excess [7]: -0.0211
- Bliss excess [8]: -0.0344
- Bliss excess [9]: -0.0537
- Bliss excess [10]: -0.0534
- Bliss excess [11]: -0.0444
- Bliss excess [12]: -0.0276
- Bliss excess [13]: -0.0312
- Bliss excess [14]: -0.077
- Bliss excess [15]: -0.0207
- Bliss excess [16]: -0.0192
- Bliss excess [17]: -0.0314

Compound: C[C@@H](c1ccc2nccn2c1)n1nnc2ncc(-c3cnn(C)c3)nc21 [Savolitinib] + CC1(C)CCC(CN2CCN(c3ccc(C(=O)NS(=O)(=O)c4ccc(NCC5CCOCC5)c([N+](=O)[O-])c4)c(Oc4cnc5[nH]ccc5c4)c3)CC2)=C(c2ccc(Cl)cc2)C1 [Venetoclax] (first compound max 1 µM, 7x7, partner max 1 µM)
- Bliss excess (GAMG (Glioblastoma)): -0.0257
- Bliss excess [1]: -0.0361
- Bliss excess [2]: -0.0611
- Bliss excess [3]: -0.0358
- Bliss excess (A673 (Ewing's Sarcoma)): -0.0673
- Bliss excess [4]: -0.0307
- Bliss excess [5]: -0.014
- Bliss excess (NCI-H2052 (Mesothelioma)): -0.0549
- Bliss excess [6]: -0.0188
- Bliss excess [7]: -0.0794
- Bliss excess [8]: -0.0712
- Bliss excess [9]: -0.0443
- Bliss excess [10]: -0.0232
- Bliss excess [11]: -0.0907
- Bliss excess [12]: 0.035
- Bliss excess [13]: -0.0736
- Bliss excess [14]: -0.0575
- Bliss excess [15]: -0.0284
- Bliss excess [16]: -0.0524
- Bliss excess [17]: -0.0597

Compound: C[C@@H](c1ccc2nccn2c1)n1nnc2ncc(-c3cnn(C)c3)nc21 [Savolitinib] + Cc1c2c(nn1C)CSCc1cc(n(C)n1)CSc1cc(c3ccccc3c1)OCCCc1c(C(=O)O)n(C)c3c-2c(Cl)ccc13 [AZD5991] (first compound max 1 µM, 7x7, partner max 1 µM)
- Bliss excess (GAMG (Glioblastoma)): -0.0209
- Bliss excess [1]: -0.0187
- Bliss excess [2]: -0.0511
- Bliss excess [3]: -0.0432
- Bliss excess (A673 (Ewing's Sarcoma)): 0.0471
- Bliss excess [4]: 0.065
- Bliss excess [5]: 0.0163
- Bliss excess (NCI-H2052 (Mesothelioma)): -0.0419
- Bliss excess [6]: -0.047
- Bliss excess [7]: -0.0234
- Bliss excess [8]: -0.0258
- Bliss excess [9]: -0.0479
- Bliss excess [10]: -0.0425
- Bliss excess [11]: -0.0247
- Bliss excess [12]: -0.0254
- Bliss excess [13]: -0.0475
- Bliss excess [14]: -0.05
- Bliss excess [15]: -0.0296
- Bliss excess [16]: -0.0733
- Bliss excess [17]: -0.0536
